Measured values reported in patent US8318949B2, “Organic compounds” (Novartis AG, priority 2008, dated 2012).

First: Cc1nc(-n2cnn(Cc3ccc(F)cc3)c2=O)sc1C(N)=O [Example 1, 2-(1-(4-fluorobenzyl)-5-oxo-1H-1,2,4-triazol-4(5H)-yl)-4-methylthiazole-5-carboxamide]
Second: Cc1cc(CNC(=O)c2sc(-n3cnn(Cc4ccc(F)cc4)c3=O)nc2C)[nH]n1 [Example 2.3, 2-(1-(4-Fluorobenzyl)-5-oxo-1H-1,2,4-triazol-4(5H)-yl)-4-methyl-N-((3-methyl-1H-pyrazol-5-yl)methyl)thiazole-5-carboxamide]
The melting point of the first is lower: 232 to 233 °C for the first, 234 to 235 °C for the second.

First: Cc1nc(-n2cnn(CC3CC3)c2=O)sc1C(N)=O [Example 1.1, 2-[1-(cyclopropylmethyl)-5-oxo-1H-1,2,4-triazol-4(5H)-yl]-4-methylthiazole-5-carboxamide]
Second: Cc1nc(N2CCN(CC3CC3)C2=O)sc1C(N)=O [Example 1.5, 2-(3-(cyclopropylmethyl)-2-oxoimidazolidin-1-yl)-4-methylthiazole-5-carboxamide]
The melting point of the first is lower: 180 to 181 °C for the first, 198 to 200 °C for the second.

First: Cc1nc(N2CCN(Cc3ccc(C(F)(F)F)cc3)C2=O)sc1C(N)=O [Example 1.2, 4-methyl-2-{2-oxo-3-[4-(trifluoromethyl)benzyl]imidazolidin-1-yl}thiazole-5-carboxamide]
Second: Cc1nc(N2CCN(Cc3ccc(OC(F)(F)F)cc3)C2=O)sc1C(N)=O [Example 1.9, 4-methyl-2-(2-oxo-3-(4-(trifluoromethoxy)benzyl)imidazolidin-1-yl)thiazole-5-carboxamide]
The melting point of the first is higher: 216 to 217 °C for the first, 185 to 187 °C for the second.

Compared with `Cc1nc(N2C[C@H](C)N(Cc3ccc(F)cc3)C2=O)sc1C(N)=O` [Example 1.3, (S)-2-(3-(4-fluorobenzyl)-4-methyl-2-oxoimidazolidin-1-yl)-4-methylthiazole-5-carboxamide], `Cc1nc(N2C[C@@H](C)N(Cc3ccc(F)cc3)C2=O)sc1C(N)=O` [Example 1.15, (R)-2-(3-(4-fluorobenzyl)-4-methyl-2-oxoimidazolidin-1-yl)-4-methylthiazole-5-carboxamide] is lower in melting point: 192 to 194 °C for the first, 185 to 186 °C for the second.

First: Cc1nc(N2CCN(CC(C)C)C2=O)sc1C(N)=O [Example 1.6, 2-(3-isobutyl-2-oxoimidazolidin-1-yl)-4-methylthiazole-5-carboxamide]
Second: Cc1nc(N2CCN(Cc3ccc(F)c(F)c3)C2=O)sc1C(N)=O [Example 1.7, 2-(3-(3,4-difluorobenzyl)-2-oxoimidazolidin-1-yl)-4-methylthiazole-5-carboxamide]
The melting point of the first is lower: 212 to 215 °C for the first, 221 to 223 °C for the second.

First: Cc1nc(N2CCN(Cc3ccc(C(F)(F)F)nc3)C2=O)sc1C(N)=O [Example 1.10, 4-methyl-2-(2-oxo-3-((6-(trifluoromethyl)pyridine-3-yl)methyl)imidazolidin-1-yl)thiazole-5-carboxamide]
Second: COc1ccc(CN2CCN(c3nc(C)c(C(N)=O)s3)C2=O)cc1F [Example 1.11, 2-(3-(3-fluoro-4-methoxybenzyl)-2-oxoimidazolidin-1-yl)-4-methylthiazole-5-carboxamide]
The melting point of the first is higher: 225 to 228 °C for the first, 182 to 184 °C for the second.

First: Cc1nc(N2C(=O)N(Cc3ccc(F)cc3)C[C@@H]2C)sc1C(N)=O [Example 1.12, (S)-2-(3-(4-fluorobenzyl)-5-methyl-2-oxoimidazolidin-1-yl)-4-methylthiazole-5-carboxamide]
Second: Cc1nc(N2C(=O)N(Cc3ccc(F)cc3)C[C@H]2C)sc1C(=O)NCc1cncs1 [Example 2.19, (R)-2-(3-(4-fluorobenzyl)-5-methyl-2-oxoimidazolidin-1-yl)-4-methyl-N-(thiazol-5-ylmethyl)thiazole-5-carboxamide]
The melting point of the first is higher: 197 to 198 °C for the first, 70 to 73 °C for the second.

Compared with `Cc1nc(N2C[C@@H](C)N(Cc3cc(F)cc(F)c3)C2=O)sc1C(N)=O` [Example 1.14, (R)-2-(3-(3,5-difluorobenzyl)-4-methyl-2-oxoimidazolidin-1-yl)-4-methylthiazole-5-carboxamide], `Cc1cc(CNC(=O)c2sc(N3C[C@@H](C)N(Cc4cc(F)cc(F)c4)C3=O)nc2C)no1` [Example 2.14, (R)-2-(3-(3,5-difluorobenzyl)-4-methyl-2-oxoimidazolidin-1-yl)-4-methyl-N-((5-methylisoxazol-3-yl)methyl)thiazole-5-carboxamide] is lower in melting point: 212 to 213 °C for the first, 63 to 66 °C for the second.

Compared with `Cc1nc(N2C[C@@H](C)N(Cc3ccc(C(F)(F)F)cc3)C2=O)sc1C(N)=O` [Example 1.16, (R)-4-methyl-2-(4-methyl-2-oxo-3-(4-(trifluoromethyl)benzyl)imidazolidin-1-yl)thiazole-5-carboxamide], `Cc1cc(CNC(=O)c2sc(N3C[C@@H](C)N(Cc4ccc(F)cc4)C3=O)nc2C)[nH]n1` [Example 2.9, (R)-2-(3-(4-fluorobenzyl)-4-methyl-2-oxoimidazolidin-1-yl)-4-methyl-N-((3-methyl-1H-pyrazol-5-yl)methyl)thiazole-5-carboxamide] is higher in melting point: 110 to 112 °C for the first, 215 to 216 °C for the second.

First: Cc1nc(N2C[C@H](C)N(Cc3ccc(F)cc3)C2=O)sc1C(=O)NCc1cccnc1 [Example 2, (S)-2-(3-(4-Fluorobenzyl)-4-methyl-2-oxoimidazolidin-1-yl)-4-methyl-N-(pyridin-3-ylmethyl)thiazole-5-carboxamide]
Second: Cc1nc(N2C[C@@H](C)N(Cc3ccc(F)cc3)C2=O)sc1C(=O)NCc1ccccn1 [Example 2.5, (R)-2-(3-(4-fluorobenzyl)-4-methyl-2-oxoimidazolidin-1-yl)-4-methyl-N-(pyridin-2-ylmethyl)thiazole-5-carboxamide]
The melting point of the first is lower: 67 to 70 °C for the first, 118 to 119 °C for the second.

Compared with `Cc1nc(N2C[C@H](C)N(Cc3ccc(F)cc3)C2=O)sc1C(=O)NCc1ccc(F)c(F)c1` [Example 2.1, (S)-N-(3,4-difluorobenzyl)-2-(3-(4-fluorobenzyl)-4-methyl-2-oxoimidazolidin-1-yl)-4-methylthiazole-5-carboxamide], `Cc1nc(N2C[C@@H](C)N(Cc3ccc(F)cc3)C2=O)sc1C(=O)NCc1ccc(F)c(F)c1` [Example 2.6, (R)-N-(3,4-difluorobenzyl)-2-(3-(4-fluorobenzyl)-4-methyl-2-oxoimidazolidin-1-yl)-4-methylthiazole-5-carboxamide] is higher in melting point: 62 to 65 °C for the first, 134 to 135 °C for the second.

Compared with `Cc1cc(CNC(=O)c2sc(N3CCN(Cc4ccc(F)cc4)C3=O)nc2C)[nH]n1` [Example 2.2, 2-(3-(4-fluorobenzyl)-2-oxoimidazolidin-1-yl)-4-methyl-N-((3-methyl-1H-pyrazol-5-yl)methyl)thiazole-5-carboxamide], `Cc1cc(CNC(=O)c2sc(N3C[C@@H](C)N(Cc4ccc(F)cc4)C3=O)nc2C)no1` [Example 2.11, (R)-2-(3-(4-fluorobenzyl)-4-methyl-2-oxoimidazolidin-1-yl)-4-methyl-N-((5-methylisoxazol-3-yl)methyl)thiazole-5-carboxamide] is lower in melting point: 225 to 226 °C for the first, 139 to 140 °C for the second.

First: C=CCCN1CCN(c2nc(C)c(C(=O)NCc3cccnc3)s2)C1=O [Example 2.4, 2-(3-(but-3-enyl)-2-oxoimidazolidin-1-yl)-4-methyl-N-(pyridin-3-ylmethyl)thiazole-5-carboxamide]
Second: Cc1nc(N2C(=O)N(Cc3ccc(F)cc3)C[C@@H]2C)sc1C(=O)NCc1cnn(C)c1 [Example 2.16, (S)-2-(3-(4-fluorobenzyl)-5-methyl-2-oxoimidazolidin-1-yl)-4-methyl-N-((1-methyl-1H-pyrazol-4-yl)methyl)thiazole-5-carboxamide]
The melting point of the first is lower: 144 to 145 °C for the first, 176 to 177 °C for the second.

First: Cc1nc(N2C[C@@H](C)N(Cc3ccc(F)cc3)C2=O)sc1C(=O)NCc1cncs1 [Example 2.8, (R)-2-(3-(4-fluorobenzyl)-4-methyl-2-oxoimidazolidin-1-yl)-4-methyl-N-(thiazol-5-ylmethyl)thiazole-5-carboxamide]
Second: Cc1nc(N2C[C@@H](C)N(Cc3ccc(F)cc3)C2=O)sc1C(=O)NCc1cc(F)cc(F)c1 [Example 2.10, (R)-N-(3,5-difluorobenzyl)-2-(3-(4-fluorobenzyl)-4-methyl-2-oxoimidazolidin-1-yl)-4-methylthiazole-5-carboxamide]
The melting point of the first is lower: 66 to 69 °C for the first, 159 to 160 °C for the second.

First: Cc1nc(N2C[C@@H](C)N(Cc3cc(F)cc(F)c3)C2=O)sc1C(=O)NCc1ccccn1 [Example 2.12, (R)-2-(3-(3,5-difluorobenzyl)-4-methyl-2-oxoimidazolidin-1-yl)-4-methyl-N-(pyridin-2-ylmethyl)thiazole-5-carboxamide]
Second: Cc1cnc(CNC(=O)c2sc(N3C[C@@H](C)N(Cc4cc(F)cc(F)c4)C3=O)nc2C)cn1 [Example 2.13, (R)-2-(3-(3,5-difluorobenzyl)-4-methyl-2-oxoimidazolidin-1-yl)-4-methyl-N-((5-methylpyrazin-2-yl)methyl)thiazole-5-carboxamide]
The melting point of the first is higher: 147 to 148 °C for the first, 131 to 132 °C for the second.

First: Cc1nc(N2C(=O)N(Cc3ccc(F)cc3)C[C@@H]2C)sc1C(=O)NCc1ccccn1 [Example 2.15, (S)-2-(3-(4-fluorobenzyl)-5-methyl-2-oxoimidazolidin-1-yl)-4-methyl-N-(pyridin-2-ylmethyl)thiazole-5-carboxamide]
Second: Cc1nc(N2C(=O)N(Cc3ccc(F)cc3)C[C@H]2C)sc1C(=O)NCc1ccccn1 [Example 2.18, (R)-2-(3-(4-fluorobenzyl)-5-methyl-2-oxoimidazolidin-1-yl)-4-methyl-N-(pyridin-2-ylmethyl)thiazole-5-carboxamide]
The melting point of the first is higher: 112 to 113 °C for the first, 55 to 57 °C for the second.

`Cc1cc(CNC(=O)c2sc(N3C(=O)N(Cc4ccc(F)cc4)C[C@@H]3C)nc2C)no1` [Example 2.17, (S)-2-(3-(4-fluorobenzyl)-5-methyl-2-oxoimidazolidin-1-yl)-4-methyl-N-((5-methylisoxazol-3-yl)methyl)thiazole-5-carboxamide] gave a melting point of 174 to 175 °C.

`Cc1nc(N2CCN(Cc3cc(F)cc(F)c3)C2=O)sc1C(N)=O` [Example 1.8, 2-(3-(3,5-difluorobenzyl)-2-oxoimidazolidin-1-yl)-4-methylthiazole-5-carboxamide] gave a melting point greater than 200 °C.
Compound `Cc1nc(N2CCN(Cc3ccc(Cl)cc3)C2=O)sc1C(N)=O` [Example 1.13, 2-(3-(4-chlorobenzyl)-2-oxoimidazolidin-1-yl)-4-methylthiazole-5-carboxamide] has a melting point greater than 200 °C.
